Each structure is given as a SMILES string. Calls of active or inactive are those of the source. No cut-off for these calls is given here.

Assay [1] has as its system Fusobacterium nucleatum. Description: Inhibition of Fusobacterium nucleatum ATCC 25586 recombinant MGL R58A mutant expressed in Escherichia coli BL21 (DE3) assessed as decrease in signal intensity by measuring recovery ratio by 19F NMR based competition assay relative to wild type. Details: scale not given: the % may be the effect or the level left.
Assay [2] has as its system Fusobacterium nucleatum. Description: Inhibition of Fusobacterium nucleatum ATCC 25586 recombinant MGL C113S mutant expressed in Escherichia coli BL21 (DE3) assessed as decrease in signal intensity by measuring recovery ratio by 19F NMR based competition assay relative to wild type. Details: scale not given: the % may be the effect or the level left.
Assay [3] deals with Fusobacterium nucleatum. Description: Inhibition of Fusobacterium nucleatum ATCC 25586 recombinant MGL R373K mutant expressed in Escherichia coli BL21 (DE3) assessed as decrease in signal intensity by measuring recovery ratio by 19F NMR based competition assay relative to wild type. Details: concentration or dose not given beside the values.
Assay [4] has as its system Fusobacterium nucleatum. Description: Inhibition of Fusobacterium nucleatum ATCC 25586 recombinant MGL Y111F mutant expressed in Escherichia coli BL21 (DE3) assessed as decrease in signal intensity by measuring recovery ratio by 19F NMR based competition assay relative to wild type. Details: concentration or dose not given beside the values.
Assay [5] relates to Fusobacterium nucleatum. Description: Inhibition of Fusobacterium nucleatum ATCC 25586 recombinant MGL R373A mutant expressed in Escherichia coli BL21 (DE3) assessed as decrease in signal intensity by measuring recovery ratio by 19F NMR based competition assay relative to wild type. Details: scale not given: the % may be the effect or the level left.
The subject of assay [6] is Fusobacterium nucleatum. Description: Inhibition of Fusobacterium nucleatum ATCC 25586 recombinant MGL R58K mutant expressed in Escherichia coli BL21 (DE3) assessed as decrease in signal intensity by measuring recovery ratio by 19F NMR based competition assay relative to wild type. More on the design: scale not given: the % may be the effect or the level left.
In assay [7] the target is T1, L-methionine gamma-lyase (Fusobacterium nucleatum subsp. nucleatum) (UniProt Q8RDT4).
T1 sequence (whole entry): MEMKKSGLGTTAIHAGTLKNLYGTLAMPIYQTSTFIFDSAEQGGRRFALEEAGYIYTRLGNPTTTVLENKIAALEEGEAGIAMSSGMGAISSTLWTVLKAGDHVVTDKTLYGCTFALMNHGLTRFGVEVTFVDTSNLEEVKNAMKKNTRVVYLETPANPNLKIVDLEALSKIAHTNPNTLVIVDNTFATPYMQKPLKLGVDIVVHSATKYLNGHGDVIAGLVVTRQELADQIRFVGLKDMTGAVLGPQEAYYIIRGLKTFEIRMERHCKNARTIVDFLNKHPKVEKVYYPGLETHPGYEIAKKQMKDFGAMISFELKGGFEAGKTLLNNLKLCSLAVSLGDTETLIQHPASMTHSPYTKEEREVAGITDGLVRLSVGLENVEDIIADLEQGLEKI
Description: Inhibition of Fusobacterium nucleatum ATCC 25586 recombinant wild type MGL expressed in Escherichia coli BL21 (DE3) assessed as decrease in signal intensity by 19F NMR based competition assay relative to control. More on the design: concentration or dose not given beside the values.

Assay [8] has as its system Fusobacterium nucleatum. Description: Inhibition of Fusobacterium nucleatum ATCC 25586 recombinant MGL Y56F mutant expressed in Escherichia coli BL21 (DE3) assessed as decrease in signal intensity by measuring recovery ratio by 19F NMR based competition assay relative to wild type. More on the design: concentration or dose not given beside the values.
The target of assay [9] is T1, L-methionine gamma-lyase (Fusobacterium nucleatum subsp. nucleatum). Description: Inhibition of Fusobacterium nucleatum ATCC 25586 recombinant wild type MGL expressed in Escherichia coli BL21 (DE3) assessed as formation of 2-ketobutyrate using L-methionine as substrate by enzymatic assay. To be noted: concentration not given here. Details: concentration or dose not given beside the values.

Assay [10] relates to Fusobacterium nucleatum. Description: Inhibition of Fusobacterium nucleatum ATCC 25586 recombinant MGL K238A mutant expressed in Escherichia coli BL21 (DE3) assessed as decrease in signal intensity by measuring recovery ratio by 19F NMR based competition assay relative to wild type. More on the design: concentration or dose not given beside the values.

For orientation: inhibition means the drop in the measured response relative to a control, in per cent. `O=C(O)c1cn(-c2ccc(C(F)(F)F)cc2)cn1`: the Activity in assay [1] was 50%; in [4], 50%; in assay [5], 80%; in assay [6] it was 80%; in [7], 87%; in assay [8], 80%. Further, the outcome in assay [2], in assay [3] and in assay [10] was Active. Moreover, the inhibition in assay [9] was 45.3%.

Turning to `CC(C)(C)OC(=O)N1CCC(C(=O)O)(c2ccc(C(F)(F)F)cc2)CC1`, the outcome in assay [1], in assay [3], in assay [4] and in [5] was Active. The Activity in assay [2] was 50%; in assay [6], 50%; in [7], 96%; in [8] it was 80%; in assay [10], 50%. The inhibition in assay [9] was 12.9%.

As to `CC(C)(C)OC(=O)N1CCC(CN)(c2cccc(F)c2)CC1`, the result in [1], in assay [2], in assay [3], in assay [4] and in [10] was Active. In addition, in assay [5], the result was inactive. Besides, the Activity in assay [6] turned out to be 80%; in [7], 65%; in [8], 50%. For the same compound, the inhibition in [9] turned out to be 16.1%.

On to `CC(C)(Cc1ccc(C(F)(F)F)cc1)C(=O)O`, for which the Activity in assay [1] is 80%; in assay [4], 80%; in assay [5], 50%; in [6], 50%; in [7], 55%; in [8], 80%. Moreover, the Activity in [10] was found to be 80%. In assay [2], the result was Active. Also, in assay [3], the outcome was inactive. Further, the inhibition in assay [9] came to 8.3%.

`CC(C)(C)OC(=O)N1CCC(CN)(c2ccccc2C(F)(F)F)CC1`: the result in assay [1], in assay [3], in assay [4] and in [5] was Active. Besides, the Activity in [2] amounted to 50%; in assay [6], 80%; in assay [7], 75%; in assay [8], 80%; in assay [10], 50%. The inhibition in assay [9] was determined as 41%.

Take `CCOC(=O)c1nc(-c2ccc(F)cc2)no1`: the Activity is 80% in [1]; 50% in [3]; 50% in assay [4]; 80% in [5]; 50% in assay [6]; 84% in assay [7]. For the same compound, in [8], the Activity turned out to be 80%. In addition, the outcome in [2] and in assay [10] was Active. Moreover, in [9], the inhibition amounted to 33.1%.

As to `O=C(O)c1ccnc(OC(F)F)c1`, the Activity stood at 80% in assay [1]; 50% in assay [2]; 50% in assay [3]; 80% in assay [5]; 80% in assay [6]; 67% in assay [7]. The Activity in [8] came to 80%. Also, the outcome in assay [4] and in [10] was Active. Besides, in assay [9], the inhibition is 1.5%.

For `O=C(O)c1cc(F)c(OCC2CC2)c(F)c1`, the Activity was 80% in [1]; 80% in assay [4]; 80% in [5]; 50% in assay [6]; 77% in assay [7]; 80% in assay [8]. The result in assay [2], in [3] and in assay [10] was Active. Moreover, the inhibition in [9] is 9.5%.

With `Nc1cc(F)c(OCC2CCC2)c(F)c1`, the result in assay [1] and in assay [4] was Active. For the same compound, the Activity was 50% in assay [2]; 50% in [6]; 55% in [7]; 80% in assay [8]; 50% in [10]. The outcome in assay [3] and in [5] was inactive. For the same compound, the inhibition in assay [9] worked out at 11.6%.

Regarding `CC(C)(C)OC(=O)N1CCC(CN)(c2ccc(F)cc2)CC1`, the Activity in assay [1] came to 50%; in [4] it was 50%; in [6] it was 50%; in assay [7], 20%; in assay [8], 80%; in assay [10], 50%. In addition, the result in assay [2], in [3] and in assay [5] was Active. Also, the inhibition in assay [9] was determined as 12.9%.

With `O=C(O)c1cc(C(F)(F)F)nn1-c1ccccc1`, the Activity was found to be 80% in [1]; 50% in assay [2]; 80% in assay [4]; 50% in assay [5]; 80% in assay [6]; 49% in [7]. For the same compound, the Activity in assay [8] amounted to 80%. Moreover, the result in assay [3] and in [10] was Active. Also, in assay [9], the inhibition was 23.9%.

Regarding `O=C(O)c1cn(-c2cccc(F)c2)cn1`, the Activity was 80% in [1]; 80% in assay [5]; 80% in [6]; 36% in assay [7]; 80% in assay [8]. The outcome in assay [2] was Active. The outcome in [3], in [4] and in assay [10] was inactive. Besides, the inhibition in [9] was -4.1%.

Consider `CC(C)(C)OC(=O)N1CCC(CN)(Cc2ccc(F)cc2)CC1`, for which the result in assay [1], in assay [3] and in [5] was Active. Also, the Activity in assay [2] was 50%; in [6], 50%; in assay [7], 70%; in assay [8] it was 80%. For the same compound, the result in assay [4] and in [10] was inactive. The inhibition in [9] came out at 27.7%.

Turning to `Cc1cccc2c(C(C(=O)O)C(F)(F)F)c[nH]c12` (stereo not given), the Activity is 80% in assay [1]; 50% in [4]; 50% in assay [5]; 50% in [6]; 44% in assay [7]; 80% in assay [8]. The Activity in assay [10] turned out to be 50%. Besides, the outcome in [2] was inactive. In assay [3], the result was Active. Besides, the inhibition in assay [9] was -5.3%.

Turning to `O=C(O)c1ccc(OC(F)F)nc1`, the Activity is 50% in [1]; 80% in assay [5]; 50% in assay [6]; 78% in assay [7]; 80% in assay [8]. Besides, the outcome in assay [2], in [3], in assay [4] and in assay [10] was Active. Further, the inhibition in assay [9] was found to be 12.6%.

As for `Cc1ccc2[nH]cc(C(C(=O)O)C(F)(F)F)c2c1` (stereo not given), the Activity in [1] came to 80%; in assay [4], 80%; in assay [5], 50%; in assay [6] it was 80%; in assay [7], 48%; in assay [8] it was 80%. Also, the outcome in [2] was inactive. In addition, the outcome in [3] and in [10] was Active. The inhibition in assay [9] came to 9.3%.

In the case of `CC(C)(C)OC(=O)N1CCC(CN)(c2ccccc2F)CC1`, the Activity turned out to be 50% in assay [1]; 50% in [2]; 50% in [6]; 77% in [7]; 80% in assay [8]. Besides, the result in assay [3], in [4] and in assay [10] was Active. In addition, in assay [5], the result was inactive. The inhibition in assay [9] was found to be 17.2%.
